Data on 5 compounds can be found in patent publication US20110217301A1, “METHODS FOR TREATING OR SCREENING FOR COMPOUNDS FOR THE TREATMENT OF SEPSIS” (priority 2009, published 2011).

Where a SMILES comes first, the peptide text is derived from it. Bridges are numbered along the chain shown (N, C = ends). [ ]: non-standard residue; d: D form. hArg = N=C(N)NCCCC[C@H](N)C(=O)O; Mpa = O=C(O)CCS

The conditions of assay [1]: adults admitted to the ICU already receiving aspirin, clopidogrel or a combination; cited from earlier work.
In the next assay the test system is splenocytes. The assay is described as follows: Ex vivo septic platelet-splenocyte co-incubation with anti-aggregatory platelet pretreatment; apoptosis by flow cytometry (TUNEL, pan-caspase FLICA). It is filed as cell-based, mouse. The procedure:
Non-septic wild type spleens were firmly pressed between two glass slides to express splenocytes, which were isolated by centrifugation through Ficoll-Paque™ Plus (GE Healthcare Bio-Sciences Corporation, Piscataway, N.J.). Splenocyte concentrations were measured and standardized using a manual hemocytometer and co-incubated ex vivo with platelets (from septic or healthy control mice) for 90 minutes at 37° C. and 5% CO2 in complete Dulbecco's Modified Eagle Medium (DMEM) (Invitrogen/GIBCO, Carlsbad, Calif.). For some experiments, a 0.4 μm semi-permeable membrane (Corning Inc., Corning, N.Y.) was used to physically separate platelets from splenocytes.
Splenocyte apoptosis in each experimental condition was quantified in cell suspensions by flow cytometry on a FACSCalibur™ (Becton, Dickinson and Company, San Jose, Calif.) and in tissue sections by immunohistochemistry on a Nikon Eclipse E 800 Microscope (Nikon Instruments Inc., Melville, N.Y.) with a Spot RT Slider Camera (Diagnostic Instruments Inc., Sterling Heights, Mich.).
Splenocyte suspension apoptosis was identified using FlowTACS™ (Trevigen, Gaithersburg, Md.), a TUNEL-based assay for detection of DNA fragmentation. Positive controls were generated with staurosporine (Sigma Life Sciences, St Louis, Mo.). CD4+ fractions were identified by fluorophore-labeled antibody staining (clone L3T4; eBiosciences, San Diego, Calif.). We used a Sulforhodamine FLICA-Apoptosis Detection Kit Pan-Caspase Assay (Immunochemistry Technologies, Bloomington, Minn.) to measure activated caspases in apoptotic cells. Immunohistochemistry was performed on frozen heart, lung, kidney, spleen, and liver sections (4-7 μm) stained with the TUNEL-based TACK® 2 TdT In Situ Apoptosis Detection Kit (Trevigen, Gaithersburg, Md., USA) according to the manufacturer's instructions.
On the technique in general: Flow cytometry measures light scatter and fluorescence of single cells or particles in a stream.

The subject of another assay is other integrins. To be noted: binds specifically to GPIIb/IIIa; cited from earlier work.
The next assay relates to CD4+ splenocytes. In words: Co-incubation of CD4+ splenocytes with platelets with or without recombinant TNFα pre-treatment; apoptosis by TiterTACS. Format: cell-based, mouse. The procedure:
CD4^+ splenocytes from healthy control mice were co-incubated with platelets isolated from control or septic mice for 90 minutes at 37° C. and 5% CO2 with or without platelet pre-treatment with 10 ng/mL of recombinant TNFα (Sigma-Aldrich) for 90 minutes. Splenocyte apoptosis was evaluated by TiterTACS™ (Trevigen, Gaithersburg, Md., USA), a quantitative colorimetric assay for in situ detection of DNA fragmentation. All samples were run in triplicate according to the manufacturer's protocol with data normalized to negative and nuclease-induced positive controls.
Our finding of granzyme B in platelets from septic mice and humans caused us to hypothesize that platelets could be lymphotoxic in this scenario. To study this question, platelets from mice 18 hours status post CLP were co-incubated with CD4^+ splenocytes isolated from healthy control mice. Platelets from septic wild-type (i.e. C57BL6) mice induced marked splenocyte apoptosis compared to platelets from sham wild-type mice (rate of apoptosis=26.0±3.4 versus 3.9±3.4%; p=0.007). (FIG. 4) This co-incubation experiment was repeated with platelets from septic granzyme B null (−/−) mice (i.e. B6.129S2-Gzmb^tmlLey). In this case, there was a complete lack of induced splenocyte apoptosis by septic platelets. […] (FIG. 4)

A further assay has as its system granzyme B. In words: Flow cytometry of intracellular granzyme B in CD61+ platelets. To be noted: additional platelet activation with TNFα; data not shown. Format: cell-based, mouse. The text has this: To determine if granzyme B mRNA up-regulation translates to increased granzyme B protein expression, additional citrated whole blood was collected from septic and control mice. It was fixed with 1% paraformaldehyde, permeabilized, and intracellularly stained with anti-granzyme B (clone 16G6; eBioscience, San Diego, Calif., USA) using appropriate isotype and negative (unlabeled) controls. Flow cytometry data were generated on a FACSCalibur™ System (BD Biosciences, San Jose, Calif., USA), gating on CD61^+ (clone 2C9.G2; BD) platelets, and analyzed using FlowJo 7.2 (Tree Star, Inc., Ashland, Oreg., USA).

The target in assay [2] is plasma membrane glycoprotein GPIIb/IIIa (mouse) (UniProt Q9QUM0). In words: cell-based or functional assay.
Where [3] appears, read: eptifibatide-exposed (4 μg/mL, 15 minutes) septic wild type platelets with healthy splenocytes vs non-exposed septic platelets, mean±SEM.
[4] abbreviates: platelets pre-treated, compared with untreated septic platelets.

Chain of UniProt Q9QUM0 (Q9QUM0 32-1033, chain 1 of 2): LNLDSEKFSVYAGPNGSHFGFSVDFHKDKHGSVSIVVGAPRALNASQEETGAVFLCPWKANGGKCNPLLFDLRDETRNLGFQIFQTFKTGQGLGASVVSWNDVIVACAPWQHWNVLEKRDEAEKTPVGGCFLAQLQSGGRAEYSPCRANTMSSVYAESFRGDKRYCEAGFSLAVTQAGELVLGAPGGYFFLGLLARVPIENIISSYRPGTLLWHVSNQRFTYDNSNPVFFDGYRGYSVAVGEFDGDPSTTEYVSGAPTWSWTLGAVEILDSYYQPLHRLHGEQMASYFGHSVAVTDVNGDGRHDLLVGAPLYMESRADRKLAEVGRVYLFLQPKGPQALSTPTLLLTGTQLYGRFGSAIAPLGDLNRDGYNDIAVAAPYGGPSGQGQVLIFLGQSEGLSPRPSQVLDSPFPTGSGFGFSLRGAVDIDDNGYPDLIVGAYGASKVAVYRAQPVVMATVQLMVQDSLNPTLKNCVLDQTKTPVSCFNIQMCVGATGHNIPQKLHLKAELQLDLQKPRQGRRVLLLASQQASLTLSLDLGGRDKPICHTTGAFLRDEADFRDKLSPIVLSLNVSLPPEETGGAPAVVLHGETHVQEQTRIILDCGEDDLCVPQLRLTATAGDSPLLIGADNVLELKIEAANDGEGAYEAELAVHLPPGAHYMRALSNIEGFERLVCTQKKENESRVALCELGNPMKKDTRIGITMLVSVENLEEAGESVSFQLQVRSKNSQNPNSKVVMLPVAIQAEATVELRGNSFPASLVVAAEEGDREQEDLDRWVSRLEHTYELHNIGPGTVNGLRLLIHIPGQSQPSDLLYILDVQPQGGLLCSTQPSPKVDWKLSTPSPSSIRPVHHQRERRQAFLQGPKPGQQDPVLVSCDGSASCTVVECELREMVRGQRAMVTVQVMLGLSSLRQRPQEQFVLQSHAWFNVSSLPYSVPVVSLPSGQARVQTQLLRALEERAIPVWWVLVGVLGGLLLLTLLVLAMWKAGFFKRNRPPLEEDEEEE
Chain of UniProt Q9QUM0 (O54890 26-787, chain 2 of 2, further chain): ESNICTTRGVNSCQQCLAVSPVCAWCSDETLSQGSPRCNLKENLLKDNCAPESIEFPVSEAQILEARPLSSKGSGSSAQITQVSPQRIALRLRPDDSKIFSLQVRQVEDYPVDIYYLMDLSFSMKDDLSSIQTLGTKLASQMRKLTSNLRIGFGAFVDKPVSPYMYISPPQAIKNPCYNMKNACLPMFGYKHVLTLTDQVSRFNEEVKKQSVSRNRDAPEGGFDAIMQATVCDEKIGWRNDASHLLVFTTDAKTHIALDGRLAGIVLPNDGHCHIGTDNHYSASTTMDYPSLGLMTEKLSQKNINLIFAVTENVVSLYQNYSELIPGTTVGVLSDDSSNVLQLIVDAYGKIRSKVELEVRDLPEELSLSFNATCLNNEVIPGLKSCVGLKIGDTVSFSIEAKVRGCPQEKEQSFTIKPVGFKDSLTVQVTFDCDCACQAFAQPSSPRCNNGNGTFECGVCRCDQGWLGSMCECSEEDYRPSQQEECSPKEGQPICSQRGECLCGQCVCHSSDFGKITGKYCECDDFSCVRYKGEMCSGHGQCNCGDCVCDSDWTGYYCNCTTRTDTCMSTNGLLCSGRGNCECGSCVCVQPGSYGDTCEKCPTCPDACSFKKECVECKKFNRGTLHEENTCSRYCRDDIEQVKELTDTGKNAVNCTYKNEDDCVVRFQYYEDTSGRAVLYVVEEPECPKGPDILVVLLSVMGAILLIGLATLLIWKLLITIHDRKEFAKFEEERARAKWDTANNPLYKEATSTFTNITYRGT

As for `CC(=O)Oc1ccccc1C(=O)O` [aspirin], in assay [1], the “levels of MODS” value was “decreased levels of MODS” and the mortality result is listed as “decreased mortality”.
For `COC(=O)[C@H](c1ccccc1Cl)N1CCc2sccc2C1` [clopidogrel], in assay [1], the “levels of MODS” value was “decreased levels of MODS” and the mortality result is “decreased mortality”.
On to `N=C(N)NCCCC[C@@H]1NC(=O)CCSSC[C@@H](C(N)=O)NC(=O)[C@@H]2CCCN2C(=O)[C@H](Cc2c[nH]c3ccccc23)NC(=O)[C@H](CC(=O)O)NC(=O)CNC1=O` [eptifibatide] ([Mpa][hArg]GDWPC-NH2; disulfide 1-7), for which, in the assay with splenocytes (setting [3]), the “reduction of splenocyte apoptosis in the CD4+ fraction” value turned out to be 85±20.7 % reduction and the “reduction of splenocyte apoptosis overall” value was 66.5±10.6 % reduction. Further, in the assay with splenocytes (setting [4]), the “septic platelet-induced CD4+ splenocyte apoptosis (TUNEL+ and pan-Caspase+), result in words” value is reported as “significant reduction”; the “septic platelet-induced splenocyte apoptosis overall (TUNEL+ and pan-Caspase+), result in words” value is “significant reduction”. The “affinity for other integrins” value with other integrins is “low affinity”.
Regarding TNFα, the “lymphotoxic capacity of platelets, result in words” value with CD4+ splenocytes (further platelet activation with recombinant TNFα) is “did not alter”. Moreover, the “rate of apoptosis (lymphotoxicity) of CD4+ splenocytes” value in the assay on CD4+ splenocytes (wild-type platelets further activated by TNFα (10 ng/mL, 90 minutes), p=0.88 vs non-activated control platelets) is recorded as 4.5±1.3%. Moreover, the “intracellular granzyme B in platelets, result in words” value in the assay on granzyme B is “did not alter”.
In assay [2], eptifibatide (peptide) returned a reduction of septic platelet-induced apoptosis in the CD4+ splenocyte fraction, TUNEL+ and pan-caspase+ by flow cytometry of 85 % reduction; a reduction of septic platelet-induced splenocyte apoptosis (overall), TUNEL+ and pan-caspase+ by flow cytometry of 66.5 % reduction.
